Reference: patent US20240116985A1, “STAPLED PEPTIDES AND METHODS THEREOF” (priority 2020, published 2024)
pEC50, pIC50: −log10 of the molar value. Converted amounts (≈) assume the structure as drawn. Like-named read-outs stand apart in the source and are kept apart here.

What was measured:
Solubility in PBS = format: physicochemical
In short: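 PBS sample ultracentrifuged; supernatant run on HPLC vs. 50 μM peptide in DMSO standard. Solubility = (PBS peak area / DMSO peak area) × 50 uM.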

[1] = target: T1, full-length B-Catenin (Uniprot ID P35222) (Homo sapiens, UniProt P35222); assay: Alphascreen binding assay (beta-catenin / biotin-TCF4 10-53)
T1 construct: 65 nM full-length B-Catenin (Uniprot ID P35222)
T1 sequence (P35222 1-781): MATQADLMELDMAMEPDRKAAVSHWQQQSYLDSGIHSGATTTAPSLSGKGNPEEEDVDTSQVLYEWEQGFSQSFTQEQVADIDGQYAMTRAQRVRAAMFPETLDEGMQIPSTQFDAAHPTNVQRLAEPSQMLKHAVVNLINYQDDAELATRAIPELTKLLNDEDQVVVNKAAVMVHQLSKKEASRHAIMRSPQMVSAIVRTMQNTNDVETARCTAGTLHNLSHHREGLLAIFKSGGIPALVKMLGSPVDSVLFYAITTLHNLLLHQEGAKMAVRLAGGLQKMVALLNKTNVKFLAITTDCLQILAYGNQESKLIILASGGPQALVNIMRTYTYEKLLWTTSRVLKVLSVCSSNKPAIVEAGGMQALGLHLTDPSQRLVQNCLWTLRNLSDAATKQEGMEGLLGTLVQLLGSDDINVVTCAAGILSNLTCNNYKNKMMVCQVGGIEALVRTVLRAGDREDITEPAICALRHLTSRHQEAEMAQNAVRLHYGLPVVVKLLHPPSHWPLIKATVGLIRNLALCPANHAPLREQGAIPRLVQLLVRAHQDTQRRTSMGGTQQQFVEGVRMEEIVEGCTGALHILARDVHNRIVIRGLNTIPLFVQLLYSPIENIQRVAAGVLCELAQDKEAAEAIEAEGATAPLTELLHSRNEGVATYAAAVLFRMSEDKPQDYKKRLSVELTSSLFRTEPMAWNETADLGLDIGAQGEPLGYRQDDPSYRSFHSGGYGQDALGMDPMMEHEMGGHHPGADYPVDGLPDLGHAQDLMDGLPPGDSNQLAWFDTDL
In short: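 AlphaScreen (Ni-chelate beads) competition in 50 mM Tris pH 8.0, 250 mM NaCl with detergents and 0.1% BSA. Peptide titrated 10 uM–5 nM against 65 nM human β-catenin bound to 10 nM biotinylated TCF4 10-53, 15 min then 60 min with beads, both at 20 °C; 1:1 Hill-slope fit.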

CHI Log D procedure = format: physicochemical; conditions: for chromatographic logD: pH 7.4, CHI Log D; for CHI Log D: pH 7.4
[2] = target: T2, full-length beta-Catenin (Uniprot ID P35222) (Homo sapiens, UniProt P35222); assay: Fluorescence polarization IC50 (beta-catenin / 5FAM-TCF4 10-53 competition); format: binding
T2 construct: 10 nM full-length beta-Catenin (Uniprot ID P35222)
T2 sequence (P35222 1-781): T1 sequence (P35222 1-781)

[3] = Table E2-1, read-out: beta-Catenin FP IC50

solubility at 15 min (Solubility in PBS; Solubility (uM)) [µM] | pEC50 [1] | chromatographic logD (CHI Log D procedure) | Solubility (Solubility in PBS) [µM] | CHI Log D (CHI Log D procedure) | Solubility (Solubility in PBS; Solubility (uM)) [µM] | pIC50 [2, 3] | pIC50 ([2]; fluorescence polarization, beta-catenin, read-out: FP EC50) | SMILES
33 (≈ 59.9 µg/mL) | 5.06 | 1.31 |  |  |  |  |  | CC(=O)N[C@@H](Cc1ccccc1)C(=O)N[C@@H](CC(=O)O)C(=O)N[C@@H](C)C(=O)N[C@]1(C)CCCCCCC=CCOC(=O)N2CC[C@@](C(=O)N[C@@H](Cc3ccccc3)C(=O)N[C@@H](Cc3c[nH]c4ccccc34)C(=O)N[C@@H](CCC(N)=O)C(N)=O)(C2)NC(=O)[C@H](C(C)C)NC(=O)[C@H](CC2CCCC2)NC(=O)[C@H](C)NC(=O)[C@H](C)NC(=O)[C@H](CC(=O)O)NC(=O)[C@H](CC(=O)O)NC1=O (single isomer, unassigned) [I-95, Ac-Phe-Asp-Ala-R8-Asp-Asp-Ala-Ala-CypA-Val-PyrS-Phe-Trp-Gln-NH2]
 | 6.49 |  | 50 (≈ 91.9 µg/mL) | 2.173 |  |  |  | CCN(CC(=O)O)C[C@@H]1NC(=O)[C@H](CC(=O)O)NC(=O)C2(CCCC=CCCCCCC[C@@](C)(C(=O)N[C@@H](Cc3ccccc3)C(=O)N[C@@H](Cc3c[nH]c4ccccc34)C(=O)N[C@@H](CCC(N)=O)C(N)=O)NC(=O)[C@H](C(C)C)NC(=O)[C@H](Cc3ccccc3)NC(=O)[C@H](C)NC(=O)[C@H](C)NC1=O)CCCC=CC[C@]1(CCCN1C(C)=O)C(=O)N[C@@H](CC(=O)O)C(=O)N[C@@H](C)C(=O)N2 (stereo partly drawn) [I-172, Ac-PL3-Asp-Ala-B5-Asp-EtGA-Ala-Ala-Phe-Val-S8-Phe-Trp-Gln-NH2]
 | 5.23 |  | 38 (≈ 72.7 µg/mL) | 1.534 |  |  |  | CC(=O)N[C@@H](Cc1ccccc1)C(=O)N[C@@H](CC(=O)O)C(=O)N[C@@H](C)C(=O)N[C@]1(C)CCCCCCC=CCOC(=O)N2CC[C@@](C(=O)N[C@@H](Cc3c(F)c(F)c(F)c(F)c3F)C(=O)N[C@@H](Cc3c[nH]c4ccccc34)C(=O)N[C@@H](CCC(N)=O)C(N)=O)(C2)NC(=O)[C@H](C(C)C)NC(=O)[C@H](Cc2ccccc2)NC(=O)[C@H](C)NC(=O)[C@H](C)NC(=O)[C@H](CC(=O)O)NC(=O)[C@H](CC(=O)O)NC1=O [I-227, Ac-Phe-Asp-Ala-R8-Asp-Asp-Ala-Ala-Phe-Val-PyrS-Pff-Trp-Gln-NH2]
 | 5.23 |  | 38 (≈ 72.7 µg/mL) | 1.534 |  |  |  | CC(=O)N[C@@H](Cc1ccccc1)C(=O)N[C@@H](CC(=O)O)C(=O)N[C@@H](C)C(=O)N[C@]1(C)CCCCCCC=CCOC(=O)N2CC[C@@](C(=O)N[C@@H](Cc3c(F)c(F)c(F)c(F)c3F)C(=O)N[C@@H](Cc3c[nH]c4ccccc34)C(=O)N[C@@H](CCC(N)=O)C(N)=O)(C2)NC(=O)[C@H](C(C)C)NC(=O)[C@H](Cc2ccccc2)NC(=O)[C@H](C)NC(=O)[C@H](C)NC(=O)[C@H](CC(=O)O)NC(=O)[C@H](CC(=O)O)NC1=O [I-228, Ac-Phe-Asp-Ala-R8-Asp-Asp-Ala-Ala-Phe-Val-PyrS-Pff-Trp-Gln-NH2]
 | 5.04 | 3.1 | 10 (≈ 18.8 µg/mL) |  |  |  |  | CC(=O)N1CCC[C@]12CC=CCCCC1(CCCC=CCCCCCC[C@@](C)(C(=O)N[C@@H](Cc3ccccc3)C(=O)N[C@@H](Cc3c[nH]c4ccccc34)C(=O)N[C@@H](CCC(N)=O)C(N)=O)NC(=O)[C@H](C(C)C)NC(=O)[C@H](Cc3ccccc3)NC(=O)[C@H](C)NC(=O)[C@H](C)NC(=O)C(Cc3cccc4cc(F)ccc34)NC(=O)[C@H](CC(=O)O)NC1=O)NC(=O)[C@H](C)NC(=O)[C@H](CC(=O)O)NC2=O (stereo partly drawn) [I-256, Ac-PL3-Asp-Ala-B5-Asp-6F1NapA-Ala-Ala-Phe-Val-S8-Phe-Trp-Gln-NH2]
 | 5.40 | 2.08 |  |  | 47 (≈ 84.4 µg/mL) |  |  | CC(=O)N1CCC[C@]12CC=CCCCC1(CCCC=CCCCCCC[C@@](C)(C(=O)N[C@@H](CCc3ccccc3)C(=O)N[C@@H](Cc3c[nH]c4ccccc34)C(=O)N[C@@H](CCC(N)=O)C(N)=O)NC(=O)[C@H](C(C)C)NC(=O)[C@H](Cc3ccccc3)NC(=O)[C@H](C)NC(=O)[C@H](C)NC(=O)[C@H](CC(=O)O)NC(=O)[C@H](CC(=O)O)NC1=O)NC(=O)[C@H](C)NC(=O)[C@H](CC(=O)O)NC2=O (stereo partly drawn) [I-268, Ac-PL3-Asp-Ala-B5-Asp-Asp-Ala-Ala-Phe-Val-S8-hPhe-Trp-Gln-NH2]
 | 5.72 | 2.74 | 10 (≈ 18.4 µg/mL) |  |  |  |  | CC(=O)N1CCC[C@]12CC=CCCCC1(CCCC=CCCCCCC[C@@](C)(C(=O)N[C@@H](Cc3ccccc3)C(=O)N[C@@H](Cc3c[nH]c4ccccc34)C(=O)N[C@@H](CCC(N)=O)C(N)=O)NC(=O)[C@H](C(C)C)NC(=O)[C@H](Cc3ccccc3)NC(=O)[C@H](C)NC(=O)[C@H](C)NC(=O)[C@H](CCc3ccc(O)cc3)NC(=O)[C@H](CC(=O)O)NC1=O)NC(=O)[C@H](C)NC(=O)[C@H](CC(=O)O)NC2=O (stereo partly drawn) [I-273, Ac-PL3-Asp-Ala-B5-Asp-hTyr-Ala-Ala-Phe-Val-S8-Phe-Trp-Gln-NH2]
 | 5.63 | 2.62 | 10 (≈ 18.3 µg/mL) |  |  |  |  | CC(=O)N1CCC[C@]12CC=CCCCC1(CCCC=CCCCCCC[C@@](C)(C(=O)N[C@@H](Cc3ccccc3)C(=O)N[C@@H](Cc3c[nH]c4ccccc34)C(=O)N[C@@H](CCC(N)=O)C(N)=O)NC(=O)[C@H](C(C)C)NC(=O)[C@H](Cc3ccccc3)NC(=O)[C@H](C)NC(=O)[C@H](C)NC(=O)[C@H](Cc3ccc(O)cc3)NC(=O)[C@H](CC(=O)O)NC1=O)NC(=O)[C@H](C)NC(=O)[C@H](CC(=O)O)NC2=O (stereo partly drawn) [I-274, Ac-PL3-Asp-Ala-B5-Asp-Tyr-Ala-Ala-Phe-Val-S8-Phe-Trp-Gln-NH2]
 | 5.17 |  | 45 (≈ 82.4 µg/mL) | 2.186 |  |  |  | CC(=O)N1CCC[C@]12CC=CCCCC1(CCCC=CCCCCCC[C@@](C)(C(=O)N[C@@H](Cc3ccc4ccccc4c3)C(=O)N[C@@H](Cc3c[nH]c4ccccc34)C(=O)N[C@@H](CCC(N)=O)C(N)=O)NC(=O)[C@H](C(C)C)NC(=O)[C@H](Cc3ccccc3)NC(=O)[C@H](C)NC(=O)[C@H](C)NC(=O)[C@H](CC(=O)O)NC(=O)[C@H](CC(=O)O)NC1=O)NC(=O)[C@H](C)NC(=O)[C@H](CC(=O)O)NC2=O (stereo partly drawn) [I-277, Ac-PL3-Asp-Ala-B5-Asp-Asp-Ala-Ala-Phe-Val-S8-2NapA-Trp-Gln-NH2]
 | 7.04 |  |  | 1.953 |  | 5.46 | 5.46 | CC(=O)N1CCC[C@]12CC=CCCCC1(CCCC=CCCCCCC[C@@](C)(C(=O)N[C@@H](Cc3ccccc3)C(=O)N[C@@H](Cc3c[nH]c4ccccc34)C(=O)N[C@@H](CCC(N)=O)C(N)=O)NC(=O)[C@H](C(C)C)NC(=O)[C@H](Cc3ccc(N)cc3)NC(=O)[C@H](C)NC(=O)[C@H](C)NC(=O)[C@H](CC(=O)O)NC(=O)[C@H](CC(=O)O)NC1=O)NC(=O)[C@H](C)NC(=O)[C@H](CC(=O)O)NC2=O (stereo partly drawn) [I-323, Ac-PL3-Asp-Ala-B5-Asp-Asp-Ala-Ala-4AmPhe-Val-S8-Phe-Trp-Gln-NH2]
 | 7.28 | 1.98 |  |  |  | 5.88 |  | CC(=O)N1CCC[C@]12CC=CCCCC1(CCCC=CCCCCCC[C@@](C)(C(=O)N[C@@H](Cc3ccccc3)C(=O)N[C@@H](Cc3c[nH]c4ccccc34)C(=O)N[C@@H](CCC(N)=O)C(N)=O)NC(=O)[C@H](C(C)C)NC(=O)[C@H](Cc3cccs3)NC(=O)[C@H](C)NC(=O)[C@H](C)NC(=O)[C@H](CC(=O)O)NC(=O)[C@H](CC(=O)O)NC1=O)NC(=O)[C@H](C)NC(=O)[C@H](CC(=O)O)NC2=O (stereo partly drawn) [I-325, Ac-PL3-Asp-Ala-B5-Asp-Asp-Ala-Ala-2Thi-Val-S8-Phe-Trp-Gln-NH2]
